{
  "source": "patent US10925823B2",
  "about": "“Synergistic antioxidant compositions” (The Procter & Gamble Company, priority 2018, dated 2021)",
  "experiment": "Oxygen Radical Absorbance Capacity (ORAC) Peroxynitrite Assay",
  "conditions": "Trolox equivalent; SIN-1 as peroxynitrite source, dihydrorhodamine-123 probe, 37° C.; FIG. 4",
  "from_the_text": "The ORAC assay is the most common method for assessing antioxidant activity. It is based on evaluating the capacity of a test material to protect a probe (e.g., a chromagen) from its damage by oxygen radicals (in this case, peroxynitrite). Results are expressed as micromole Trolox Equivalency per gram of the test material:\nThis methodology is further discussed in: “Development and validation of an improved oxygen radical absorbance capacity assay using fluorescein as the fluorescent probe.”; Ou, Boxin, Maureen Hampsch-Woodill, and Ronald L. Prior. Journal of agricultural and food chemistry 49.10 (2001): 4619-4626 incorporated herein by reference; and further in “Development and validation of oxygen radical absorbance capacity assay for lipophilic antioxidants using randomly methylated β-cyclodextrin as the solubility enhancer.”, Huang, Dejian, et al. Journal of Agricultural and Food Chemistry 50.7 (2002): 1815-1821, incorporated herein by reference.\nExperimental Methodology: The ORAC Peroxynitrite measures the peroxynitrite radical. […] Dihydrorhodamine-123 is the chosen target protein, whose loss of fluorescence (with excitation at 485 nm and emission at 528 nm) is an indication of the extent of damage from its reaction with the peroxynitrite radical. […] Kinetic fluorescence profile is detected using Biotek plate reader with excitation at 485 nm and emission at 528 nm, at 37° C. […]",
  "data": [
    {"molecule": "[O-]n1ccccc1=S.[O-]n1ccccc1=S.[Zn+2]", "note": "[ZPT, zinc salt of 1-hydroxy-2-pyridinethione]", "values": [
      {"measurement": "ORAC peroxynitrite antioxidant activity", "value": "only individual material that showed appreciable activity"}
    ]}
  ]
}
